This is an account of results in ChEMBL document CHEMBL1201862, “PubChem BioAssay data set” (2004).

SMILES strings stand for the structures.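 Each compound was tested at five concentrations against cells in 96-well plates for 48 hours. GI50 is the concentration that inhibits growth by half.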 Calls of active or inactive are those of the source. Rule as the data show it: active = GI50 up to about 1.1 µM and inactive = higher.

Some test systems named below: MDA-MB-435; NCI-H460; HOP-92; OVCAR-4; OVCAR-5; SK-MEL-5; HCT-15; RXF 393; A549; EKVX; U-251; HL-60; HOP-62; IGROV-1; KM12; TK-10; Malme-3M; Hs-578T; SK-MEL-2; 786-0.
What all share (test): inhibition of tumour cell growth, NCI panel, 48 h

Take `COc1cc(C2c3cc4c(cc3OC(Nc3ccc(C(=O)O)cc3)C2C)OCO4)cc(OC)c1OC` (stereo not given): the GI50 in the assay with MDA-MB-435 was 0.0317 µM (active); in the assay on NCI-H460, 0.326 µM (active); with HOP-92, 4.13 µM (inactive); with OVCAR-4 it was 0.458 µM (active); in the assay on OVCAR-5, 0.841 µM (active); with SK-MEL-5 it was 0.0735 µM (active). Besides, the GI50 was 0.294 µM in the assay on HCT-15; 0.115 µM (active) in the assay with RXF 393; 0.373 µM (active) in the assay with A549; 0.745 µM (active) in the assay on EKVX; 0.346 µM (active) in the assay with U-251; 0.186 µM (active) with HL-60. The GI50 was 0.446 µM (active) with HOP-62; 0.618 µM (active) in the assay on IGROV-1; 0.241 µM (active) in the assay with KM12; 25.4 µM (inactive) in the assay with TK-10; 0.0655 µM (active) in the assay on Malme-3M; 1.39 µM (inactive) in the assay with Hs-578T. Also, the GI50 was 0.579 µM (active) with SK-MEL-2 and 0.468 µM (active) in the assay with 786-0.

Consider `CCCCCCCCCCCCCCCC(=O)OC1C(O)C(O)C(O)C(O)C12CO2` (stereo not given), for which the GI50 with MDA-MB-435 is 48.5 µM (inactive); with NCI-H460 it was > 100 µM (inactive); with HOP-92 it was 14.3 µM (inactive); in the assay with OVCAR-4 it was 55.1 µM (inactive); in the assay with OVCAR-5 it was 56 µM (inactive); in the assay with SK-MEL-5, > 100 µM (inactive). Further, the GI50 in the assay with HCT-15 was 24.5 µM; with RXF 393, 69.2 µM (inactive); in the assay with A549, > 100 µM (inactive); in the assay with EKVX, 22.7 µM (inactive); in the assay on U-251 it was 17.5 µM (inactive); with HL-60, 15.2 µM (inactive). Besides, the GI50 was > 100 µM (inactive) in the assay on HOP-62; 25.1 µM (inactive) in the assay with IGROV-1; 36.2 µM (inactive) in the assay with KM12; > 100 µM (inactive) with TK-10; > 100 µM (inactive) with Malme-3M; 31.4 µM (inactive) with Hs-578T. The GI50 is 37.3 µM (inactive) with SK-MEL-2 and 18.6 µM (inactive) in the assay with 786-0.

For the molecule `CCOC(=O)CCC(C(=O)OCC)n1nnc2cc(Nc3c(C)[n+]([O-])c4ccc(Cl)cc4[n+]3[O-])ccc21` (stereo not given), the GI50 in the assay with MDA-MB-435 is > 100 µM (inactive); in the assay with NCI-H460, 39.1 µM (inactive); in the assay with HOP-92, 50.8 µM (inactive); in the assay with OVCAR-4, 79.8 µM (inactive); with OVCAR-5, > 100 µM (inactive); with SK-MEL-5 it was 73.8 µM (inactive). Also, the GI50 in the assay on HCT-15 is 53.7 µM; in the assay on RXF 393, 57.9 µM (inactive); in the assay on A549 it was > 100 µM (inactive); with EKVX it was 23.2 µM (inactive); in the assay on U-251 it was 80 µM (inactive); in the assay with HL-60, 45 µM (inactive). The GI50 in the assay with HOP-62, in the assay on IGROV-1, in the assay on KM12, in the assay with TK-10, in the assay with Malme-3M and in the assay on Hs-578T was > 100 µM (inactive) throughout. Besides, the values for the GI50 with SK-MEL-2 and in the assay on 786-0 were 99.1 µM (inactive) and 98.4 µM (inactive), respectively.

On to `CN(C)CCCNc1cnc2cc3ccccc3cc2n1`, for which the GI50 was 24.5 µM (inactive) in the assay with MDA-MB-435; 33.3 µM (inactive) in the assay on NCI-H460; 23.5 µM (inactive) in the assay on HOP-92; 23.8 µM (inactive) with OVCAR-4; 18.6 µM (inactive) in the assay with OVCAR-5; 19.6 µM (inactive) in the assay with SK-MEL-5. Moreover, the GI50 in the assay on HCT-15 was 18.4 µM; in the assay on RXF 393, 21.6 µM (inactive); in the assay on A549, 26 µM (inactive); with EKVX, 28 µM (inactive); in the assay on U-251 it was 36.5 µM (inactive); with HL-60 it was 32.2 µM (inactive). Moreover, the GI50 in the assay on HOP-62 is 26.2 µM (inactive); with IGROV-1 it was 13.9 µM (inactive); in the assay on KM12 it was 20 µM (inactive); in the assay with TK-10, 27 µM (inactive); with Malme-3M, 14.1 µM (inactive); in the assay with Hs-578T it was 32.1 µM (inactive). The GI50 was 19.5 µM (inactive) in the assay with SK-MEL-2 and 31 µM (inactive) with 786-0.

In the case of `O=[N+]([O-])c1cc(Cl)ccc1S(=O)(=O)c1ccccc1`, the GI50 with MDA-MB-435 is > 100 µM (inactive); with NCI-H460, > 100 µM (inactive); in the assay on HOP-92, 82 µM (inactive); with OVCAR-4 it was 24.7 µM (inactive); with OVCAR-5 it was > 100 µM (inactive); in the assay with SK-MEL-5 it was 49.2 µM (inactive). Besides, the GI50 with HCT-15 is 27.6 µM; with RXF 393 it was 54.6 µM (inactive); in the assay on A549 it was > 100 µM (inactive); with EKVX, > 100 µM (inactive); in the assay on U-251, > 100 µM (inactive); with HL-60 it was 38.9 µM (inactive). Also, the GI50 in the assay on HOP-62 was 39.7 µM (inactive); with IGROV-1, > 100 µM (inactive); with KM12, > 100 µM (inactive); in the assay with TK-10, > 100 µM (inactive); with Malme-3M, 52.8 µM (inactive); with Hs-578T, 26.7 µM (inactive). For the same molecule, the GI50 in the assay on SK-MEL-2 is 17.3 µM (inactive); in the assay on 786-0, > 100 µM (inactive).

Regarding `Cc1ccc(O)c(Cc2nc3ccccc3nc2-c2cccc(Br)c2)c1`, the GI50 with MDA-MB-435, in the assay on NCI-H460, in the assay with HOP-92, with OVCAR-4, with OVCAR-5 and in the assay on SK-MEL-5 was > 100 µM (inactive) each time. The GI50 with HCT-15 was 22.3 µM; in the assay on RXF 393 it was > 100 µM (inactive); in the assay on A549, > 100 µM (inactive); with EKVX, > 100 µM (inactive); with U-251 it was > 100 µM (inactive); with HL-60, 52.1 µM (inactive). The GI50 in the assay on HOP-62 is > 100 µM (inactive); in the assay on IGROV-1, 46 µM (inactive); in the assay with KM12, > 100 µM (inactive); in the assay on TK-10, > 100 µM (inactive); with Malme-3M it was > 100 µM (inactive); in the assay on Hs-578T, 12.5 µM (inactive). Moreover, the results for the GI50 in the assay on SK-MEL-2 and in the assay on 786-0 were > 100 µM (inactive) and 57 µM (inactive), respectively.

In the case of `NC1=NCC(CN2CCCC2)O1` (stereo not given), the GI50 in the assay with MDA-MB-435, in the assay with NCI-H460, in the assay with HOP-92, in the assay on OVCAR-4, with OVCAR-5 and in the assay with SK-MEL-5 was > 100 µM (inactive) throughout. For the same molecule, the GI50 is > 100 µM in the assay with HCT-15; > 100 µM (inactive) in the assay on RXF 393; > 100 µM (inactive) in the assay with A549; > 100 µM (inactive) in the assay with EKVX; > 100 µM (inactive) with U-251; > 100 µM (inactive) with HL-60. Also, the GI50 in the assay on HOP-62, in the assay with IGROV-1, in the assay with KM12, in the assay with TK-10, in the assay on Malme-3M and in the assay on Hs-578T was > 100 µM (inactive) in each case. Also, the GI50 in the assay on SK-MEL-2 and with 786-0 was > 100 µM (inactive) each time.

Turning to `CC1=[N+](C)CCN1C`, the GI50 in the assay with MDA-MB-435, in the assay with NCI-H460, in the assay on HOP-92, in the assay on OVCAR-4, in the assay with OVCAR-5 and in the assay on SK-MEL-5 was > 100 µM (inactive) each time. The GI50 with HCT-15 is > 100 µM; in the assay on RXF 393, > 100 µM (inactive); in the assay with A549, > 100 µM (inactive); in the assay on EKVX it was > 100 µM (inactive); in the assay with U-251, > 100 µM (inactive); in the assay on HL-60, > 100 µM (inactive). The GI50 in the assay with HOP-62, in the assay on IGROV-1, in the assay on KM12, in the assay on TK-10, in the assay on Malme-3M and with Hs-578T was > 100 µM (inactive) in each case. In addition, the GI50 in the assay with SK-MEL-2 and in the assay on 786-0 was > 100 µM (inactive) in each case.

As to `CC(C)NC(=O)OCc1c(COC(=O)NC(C)C)n(C)c2c1ccc1ccccc12`, the GI50 with MDA-MB-435 is 1.52 µM (inactive); in the assay on NCI-H460, 2.53 µM (inactive); in the assay with HOP-92 it was 1.16 µM (inactive); in the assay on OVCAR-4, 2.75 µM (inactive); with OVCAR-5, 2.97 µM (inactive); in the assay on SK-MEL-5, 2.34 µM (inactive). For the same molecule, the GI50 was 1.54 µM with HCT-15; 1.25 µM (inactive) with RXF 393; 9.98 µM (inactive) with A549; 2.43 µM (inactive) in the assay with EKVX; 1.63 µM (inactive) with U-251; 2.86 µM (inactive) in the assay with HL-60. Further, the GI50 is 4.75 µM (inactive) in the assay on HOP-62; 1.43 µM (inactive) in the assay on IGROV-1; 4.51 µM (inactive) in the assay with KM12; 1.63 µM (inactive) in the assay with TK-10; 0.877 µM (active) in the assay with Malme-3M; 0.971 µM (active) in the assay on Hs-578T. Further, the figures for the GI50 in the assay on SK-MEL-2 and in the assay on 786-0 were 1.78 µM (inactive) and 1.21 µM (inactive), respectively.

Regarding `COc1ccc2c(c1[N+](=O)[O-])CC[C@@H]1[C@@H]2CC[C@]2(C)C(=O)CC[C@@H]12`, the GI50 in the assay with MDA-MB-435 was > 25 µM (inactive); in the assay on NCI-H460, 24.9 µM (inactive); with HOP-92, 21.4 µM (inactive); in the assay on OVCAR-4 it was 15.5 µM (inactive); in the assay with OVCAR-5 it was > 25 µM (inactive); in the assay with SK-MEL-5, > 25 µM (inactive). Further, the GI50 in the assay with HCT-15 is > 25 µM; with RXF 393 it was > 25 µM (inactive); with A549, > 25 µM (inactive); in the assay on EKVX, > 25 µM (inactive); in the assay with U-251 it was > 25 µM (inactive); with HL-60 it was 24.5 µM (inactive). Also, the GI50 in the assay on HOP-62 is > 6.71 µM (inactive); with IGROV-1, > 18 µM (inactive); with KM12, > 25 µM (inactive); with TK-10, > 25 µM (inactive); with Malme-3M, 17.2 µM (inactive); in the assay on Hs-578T, 17.1 µM (inactive). The figures for the GI50 in the assay with SK-MEL-2 and with 786-0 were 14.8 µM (inactive) and 210 µM (inactive), respectively.
